Here are results for six compounds from PubChem BioAssay AID1918994 (Molecular Pharmacology Branch, DTP, NCI, 2023).

The experiment deals with 292921-168-R-J2-PDC complex spheroid growth. The experiment is described as follows: Anticancer human tumor 292921-168-R-J2-PDC patient-derived pancreatic carcinoma cell line growth inhibition [AhR]. Conditions: for viability, T/C: stronger effect = lower value. The essentials:
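Agents were dosed in half-log steps down from roughly clinical Cmax, or from 10 microM where Cmax was unknown, alone and with AhR antagonists. Read-out: percent test/control growth of tumor spheroids containing HUVEC and MSC stromal cells.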

[1] abbreviates: curve of first compound, second compound 0.1 µM.
Setting [2] is: curve of first compound, second compound 0.316 µM.
Setting [3] is: curve of first compound, second compound 1 µM.
The mark [4] stands for this setting: curve of first compound, second compound 3.16 µM.
Where [5] appears, read: curve of first compound, second compound 10 µM.
[6] abbreviates: second compound 0.1 µM, first compound 0.000316 µM.
The mark [7] stands for this setting: second compound 0.1 µM, first compound 0.001 µM.
The mark [8] stands for this setting: second compound 0.1 µM, first compound 0.00316 µM.
[9] abbreviates: second compound 0.1 µM, first compound 0.01 µM.
Where [10] appears, read: second compound 0.1 µM, first compound 0.0316 µM.
Setting [11] is: second compound 0.1 µM, first compound 0.1 µM.
The mark [12] stands for this setting: second compound 0.316 µM, first compound 0.000316 µM.
The mark [13] stands for this setting: second compound 0.316 µM, first compound 0.001 µM.
Setting [14] is: second compound 0.316 µM, first compound 0.00316 µM.
Where [15] appears, read: second compound 0.316 µM, first compound 0.01 µM.
Setting [16] is: second compound 0.316 µM, first compound 0.0316 µM.
[17] abbreviates: second compound 0.316 µM, first compound 0.1 µM.
Setting [18] is: second compound 1 µM, first compound 0.000316 µM.
[19] abbreviates: second compound 1 µM, first compound 0.001 µM.
Setting [20] is: second compound 1 µM, first compound 0.00316 µM.
[21] abbreviates: second compound 1 µM, first compound 0.01 µM.
[22] abbreviates: second compound 1 µM, first compound 0.0316 µM.
[23] abbreviates: second compound 1 µM, first compound 0.1 µM.
Setting [24] is: second compound 3.16 µM, first compound 0.000316 µM.
The mark [25] stands for this setting: second compound 3.16 µM, first compound 0.001 µM.
Setting [26] is: second compound 3.16 µM, first compound 0.00316 µM.
[27] abbreviates: second compound 3.16 µM, first compound 0.01 µM.
Where [28] appears, read: second compound 3.16 µM, first compound 0.0316 µM.
[29] abbreviates: second compound 3.16 µM, first compound 0.1 µM.
The mark [30] stands for this setting: second compound 10 µM, first compound 0.000316 µM.
[31] abbreviates: second compound 10 µM, first compound 0.001 µM.
[32] abbreviates: second compound 10 µM, first compound 0.00316 µM.
Where [33] appears, read: second compound 10 µM, first compound 0.01 µM.
Where [34] appears, read: second compound 10 µM, first compound 0.0316 µM.
Setting [35] is: second compound 10 µM, first compound 0.1 µM.

Where “and” joins values, the source holds several entries; their conditions need not be identical. Identical values can stand only once.
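Further: spheroids exposed to compounds for seven days after three days of growth.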

As usually defined, the IC50 is the concentration that gives 50% inhibition. As usually defined, the viability, T/C is the result in the treated group divided by that in the control group, in per cent. `CC[C@@]1(O)C(=O)OCc2c1cc1n(c2=O)Cc2cc3c(CN(C)C)c(O)ccc3nc2-1` + CC(CO)NC(=O)c1cc(-c2ccc(Cl)cc2)nn(-c2cnn(C)c2)c1=O: the IC50 was 29.2 nM under setting [1]; 28.1 nM under setting [2]; 30.7 nM under setting [3]; 25.5 nM under setting [4]; 18.4 nM under setting [5]. Moreover, the viability, T/C by setting is: under setting [6], 101%; under setting [7], 99.9%; under setting [8], 100%; under setting [9], 78.6%; under setting [10], 48.6%; under setting [11], 21.8%. For the same compound, the viability, T/C was 104% under setting [12]; 103% under setting [13]; 106% under setting [14]; 75.2% under setting [15]; 49.3% under setting [16]; 24% under setting [17]. Further, the viability, T/C under setting [18] is 101%; the viability, T/C under setting [19] was 98.2%; the viability, T/C under setting [20] is 99.5%; the viability, T/C under setting [21] was 77.4%; the viability, T/C under setting [22] was 50.4%; the viability, T/C under setting [23] is 23.3%. The viability, T/C runs as follows: under setting [24], 91.4%; under setting [25], 81.6%; under setting [26], 90.6%; under setting [27], 72.5%; under setting [28], 45.1%; under setting [29], 23.6%. Further, the viability, T/C is 68% under setting [30]; 67.7% under setting [31]; 63.1% under setting [32]; 62% under setting [33]; 40% under setting [34]; 22% under setting [35].
For `CC[C@@]1(O)C(=O)OCc2c1cc1n(c2=O)Cc2cc3c(CN(C)C)c(O)ccc3nc2-1` + Cc1ccccc1N=Nc1ccc(NC(=O)c2ccnn2C)c(C)c1, the IC50 worked out at 22.9 nM under setting [1]; 18.6 nM under setting [2]; 18.5 nM under setting [3]; 13.9 nM under setting [4]; 12.7 nM under setting [5]. In addition, the viability, T/C under setting [6] is 90.9%; the viability, T/C under setting [7] is 90.8%; the viability, T/C under setting [8] was 82.5%; the viability, T/C under setting [9] was 79.5%; the viability, T/C under setting [10] is 38.7%; the viability, T/C under setting [11] was 16.8%. The viability, T/C runs as follows: under setting [12], 82.9%; under setting [13], 92.5%; under setting [14], 81.2%; under setting [15], 66.2%; under setting [16], 36.2%; under setting [17], 18.6%. Further, the viability, T/C is 86.6% under setting [18]; 88% under setting [19]; 76.9% under setting [20]; 62.9% under setting [21]; 39.1% under setting [22]; 15.6% under setting [23]. For the same compound, the viability, T/C under setting [24] is 76%; the viability, T/C under setting [25] is 70.4%; the viability, T/C under setting [26] is 67.1%; the viability, T/C under setting [27] was 58.2%; the viability, T/C under setting [28] is 32.8%; the viability, T/C under setting [29] is 14.1%. In addition, the viability, T/C was 54.4% under setting [30]; 61.1% under setting [31]; 52.6% under setting [32]; 55.6% under setting [33]; 28.9% under setting [34]; 16.2% under setting [35].
As to `COc1cccc2c1C(=O)c1c(O)c3c(c(O)c1C2=O)CC(O)(C(=O)CO)CC3OC1CC(N)C(O)C(C)O1` (centres undefined), the viability, T/C (compound 0.0316 µM) is 37.4% and 25.9% and 34.4%; the viability, T/C (compound 0.1 µM) is 26.1% and 17.6% and 21.9%; the viability, T/C (compound 0.316 µM) was 10.9% and 4.94% and 7.46%; the viability, T/C (compound 1 µM) was 0.32% (2×) and 0.28%; the viability, T/C (compound 3.16 µM) was 0.76% (2×) and 0.73%; the viability, T/C (compound 10 µM) is 2.02% and 2.08% and 3.06%. Besides, under “curve of compound”, the IC50 is < 31.6 nM.
With `COc1cc(C2c3cc4c(cc3C(OC3OC5COC(C)OC5C(O)C3O)C3COC(=O)C23)OCO4)cc(OC)c1O` (centres undefined) + Cc1ccccc1N=Nc1ccc(NC(=O)c2ccnn2C)c(C)c1, the IC50 under setting [1] was determined as 396 nM; the IC50 under setting [2] came to 409 nM; the IC50 under setting [3] worked out at 355 nM; the IC50 under setting [4] came out at 181 nM; the IC50 under setting [5] amounted to 105 nM. Moreover, the viability, T/C reads like this: under setting [10], 92.5%; under setting [11], 85.8%; (second compound 0.1 µM, first compound 0.316 µM) 51.6%; (second compound 0.1 µM, first compound 1 µM) 30.8%; (second compound 0.1 µM, first compound 3.16 µM) 18%; (second compound 0.1 µM, first compound 10 µM) 10.8%. Also, the viability, T/C by setting is: under setting [16], 86.3%; under setting [17], 71%; (second compound 0.316 µM, first compound 0.316 µM) 58.7%; (second compound 0.316 µM, first compound 1 µM) 29.9%; (second compound 0.316 µM, first compound 3.16 µM) 14.8%; (second compound 0.316 µM, first compound 10 µM) 11.7%. The viability, T/C runs as follows: under setting [22], 75.6%; under setting [23], 72.2%; (second compound 1 µM, first compound 0.316 µM) 52.3%; (second compound 1 µM, first compound 1 µM) 26.3%; (second compound 1 µM, first compound 3.16 µM) 19.2%; (second compound 1 µM, first compound 10 µM) 10.9%. In addition, the viability, T/C runs as follows: under setting [28], 63.4%; under setting [29], 60.8%; (second compound 3.16 µM, first compound 0.316 µM) 40.5%; (second compound 3.16 µM, first compound 1 µM) 25.5%; (second compound 3.16 µM, first compound 3.16 µM) 16.4%; (second compound 3.16 µM, first compound 10 µM) 9.21%. The viability, T/C under setting [34] was 60.8%; the viability, T/C under setting [35] was 52.7%; the viability, T/C (second compound 10 µM, first compound 0.316 µM) is 27.2%; the viability, T/C (second compound 10 µM, first compound 1 µM) is 23.3%; the viability, T/C (second compound 10 µM, first compound 3.16 µM) was 18.9%; the viability, T/C (second compound 10 µM, first compound 10 µM) was 11.1%.
Regarding `Cc1ccccc1N=Nc1ccc(NC(=O)c2ccnn2C)c(C)c1`, the viability, T/C runs as follows: (compound 0.1 µM) 91.3% [middle of 19 runs]; (compound 0.316 µM) 85.6% [middle of 20 runs]; (compound 1 µM) 82.1% [middle of 20 runs]; (compound 10 µM) 62.7% [middle of 21 runs]. Where the note is “compound alone, run of 06/14/2022”, the IC50 is > 10000 nM.
Consider `O=C(C=Cc1cccc(S(=O)(=O)Nc2ccccc2)c1)NO`, for which the viability, T/C is 68.6% and 72.8% and 73.1% (compound 0.0316 µM); 60.2% and 62% and 60% (compound 0.1 µM); 45.1% and 51.2% and 40.3% (compound 0.316 µM); 40.8% and 41.1% and 34.5% (compound 1 µM); 36.6% and 37.4% and 31.4% (compound 3.16 µM); 3.45% and 3.29% and 1.56% (compound 10 µM). Moreover, the IC50 (curve of compound) is 424 nM and 553 nM and 249 nM.
